Assay results: patent US7700553B2, “Selective inhibition of NF-κB activation by peptides designed to disrupt nemo oligomerization” (priority 2003, dated 2010)
Ends that are not written are not given here. BODIPY = not defined here

Columns and labels:
[1] = system: LPS-induced NF-κB activation in 70Z/3-C3 cells; test: NF-κB inhibition assay, first procedure (NF-κB dependent β-galactosidase reporter, LPS stimulation); assay type: cell-based, murine; details: 20 μM peptide; for effect on LPS-induced NF-κB activation (in words): 2 h, then 5 h LPS
[2] = target: T1, CC2 peptide composing the minimal oligomerization domain of NEMO (Mus musculus, UniProt O88522); test: Fluorescence anisotropy titration with CC2 peptide; assay type: binding, murine; details: in vitro, fluorescence polarization
T1 construct: SKGMQLEDLRQQLQQAEEA; made in house; host or cells: chemical solid-phase peptide synthesis (Fmoc/tBu), not expressed
T1 sequence (O88522 248-287): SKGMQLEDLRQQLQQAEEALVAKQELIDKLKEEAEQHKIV
Method: FIG. 7: Association of Ant-CC2 and Ant-LZ Peptides to the CC2 Peptide (A) Direct titration of BODIPY-Ant-CC2 (1 μM) with CC2 by fluorescence anitropy. The concentration of CC2 was determined by amino acid analysis. Anisotropy values of BODIPY-Ant-CC2 in milliunits (mA) were plotted against an increasing concentration of the CC2 peptide. […] The two dashed lines represent a stoichiometric titration and intersect at an CC2 concentration of […]. Given the 1 μM concentration of the BODIPY-Ant-CC2, this gives a complex stoechiometrie of 0.8. (B) Direct titration of BODIPY-Ant-LZ (0.1 μM with CC2 by fluorescence anitropy. The anisotropy values of the BODIPY-Ant-LZ alone (white bar) or in the presence of the CC2 peptide (30 μM, grey bar; 100 μM, black bar) are given in milliunits (mA).
Anisotropy measurements were performed with a PTI Quantamaster fluorometer equipped with polarizers for the excitation and emission beams. This instrument uses a PMT in the L-configuration. […] Steady-state fluorescence anisotropy was expressed as millianisotropy (mA) and was calculated according to the equations: (1) A=(IVV−GIVH)/(IVV+2GIVH); (2) G=IHV/IHH; where A is anisotropy, G is a correction factor for wavelength-dependent distortion and I is the fluorescence intensity component (subscript referring to the vertical and horizontal positioning at the excitation and emission polarizers, respectively). […]

[3] = system: LPS-induced NF-κB activation in 70Z/3-C3 cells; test: NF-κB inhibition assay, second more stringent procedure (peptide washed out, 24 h growth before LPS); assay type: cell-based, murine; details: 10 μM peptide
Source text: FIG. 4: Specific Inhibition of NF-κB Activation in Response to LPS Depends on a Few Mutations in the Hydrophobic Core of CC2 and LZ Coiled-Coils Left panels show a helical wheel diagram of CC2 (A) and LZ (B) peptides. The view is from the top the molecule. The (a) through (g) positions, which are an essential feature of coiled coil sequence (Vinson, 2002, Mol. Cell. Biol.) represent sequential positions in each peptide sequence. The first (a) and fourth (d) positions that are generally occupied by hydrophobic amino acids constitute the hydrophobic core for parallel as well as antiparallel-coiled coils. […] NF-κB activity was measured using the β-galactosidase assay. […]
FIG. 5: Inhibition of NF-κB Activation by the LZ Peptide Occurs Through the Formation of Specific Coiled-Coil Strands. […] NF-κB activity was measured using the β-galactosidase assay. […]

With “B-CRQIKIWFQNRRMKWKKLKAQADIYKADFQAERHAREKLVEKKEYLQEQLEQLQREFNKL (C(BODIPY)RQIKIWFQNRRMKWKKLKAQADIYKADFQAERHAREKLVEKKEYLQEQLEQLQREFNKL-NH2; not fully specified (N-terminus); reading uncertain) [BODIPY-Ant-LZ (WT)]” the “effect on LPS-induced NF-κB activation (in words)” value (from here on “effect”) [1] was “decreased significantly the NF-κB activation”, the “effect” value ([1]; listed as “Leucine zipper” peptide) was “completely eliminates cell response” and the “basal NF-κB activity in the absence of LPS (in words)” value ([1]; no LPS) was “without affecting the intrinsic basal NF-κB activity”. For the same substance, the “binding to the CC2 peptide (in words)” value [2] was “binds in vitro to the CC2 peptide”.

For “B-CRQIKIWFQNRRMKWKKLKAQADIYKADFQAERHAREKLVEKKEYSQEQLEQSQREFNKL (C(BODIPY)RQIKIWFQNRRMKWKKLKAQADIYKADFQAERHAREKLVEKKEYSQEQLEQSQREFNKL-NH2; not fully specified (N-terminus); printed as B-CRQIKIWFQNRRMKWKKLKAQADIYKADFQAERHAREKLVEKKEYSQEQLEQSQREFNKL; reading uncertain) [BODIPY-Ant-LZ (Mu)]”, the “inhibition of LPS-induced NF-κB activation compared to the control” value [3] was 15%.

For “B-CRQIKIWFQNRRMKWKKSKGMQLEDLRQQGQQAEEAGVAKQELGDKLKEEAEQHKIV (C(BODIPY)RQIKIWFQNRRMKWKKSKGMQLEDLRQQGQQAEEAGVAKQELGDKLKEEAEQHKIV-NH2; not fully specified (N-terminus); printed as B-CRQIKIWFQNRRMKWKKSKGMQLEDLRQQGQQAEEAGVAKQELGDKLKEEAEQHKIV; reading uncertain) [BODIPY-Ant-CC2 (Mu)]”, the “effect” value [3] was “did not affect the NF-κB activation”.
